Each structure is given as a SMILES string.

Here are results for ten molecules from patent publication US8691757B2 (Bristol-Myers Squibb Company, priority 2011, dated 2014).

Experiment [1] deals with HCV genotype 1a (H77 strain) replicon in HUH-7 cells. As to the kind of experiment: HCV replicon luciferase reporter assay, genotype 1a. It counts as cell-based. To be noted: Hepatitis C virus, 72 h, HCV genotype 1a replicon, 3 days incubation, Renilla luciferase. An excerpt:
(§1) An HCV replicon whole cell system was established as described by Lohmann V, Korner F, Koch J, Herian U, Theilmann L, Bartenschlager R., Science 285(5424):110-3 (1999) and modified to introduce a luciferase reporter, as first described by Krieger et al (Krieger N, Lohmann V, and Bartenschlager R, J. Virol. 75(10):4614-4624 (2001)). CDNA encoding a humanized form of the Renilla luciferase gene and a linker sequence fused directly to the 3′-end of the luciferase gene were introduced into the replicon construct using an Asc1 restriction site located in core, directly upstream of the neomycin marker gene. The adaptive mutation at position 1179 (serine to isoleucine) was also introduced (Blight K J, Kolykhalov, A A, Rice, C M, Science 290(5498):1972-1974). A stable cell line constitutively expressing this HCV replicon construct was generated by first linearizing plasmid DNAs with ScaI. RNA transcripts were synthesized in vitro using the T7 MegaScript transcription kit (Ambion, Austin, Tex.) according to manufacturer's directions. In vitro transcripts of the cDNA were transfected into the human hepatoma cell line, HUH-7. […] Resulting cell lines were characterized for positive and negative strand RNA production and protein production over time.
A stable HCV replicon luciferase reporter cell line representing the genotype 1a H77 strain (Yanagi M, Purcell R H, Emerson S U, et al. Transcripts from a single full-length cDNA clone of hepatitis C virus are infectious when directly transfected into the liver of a chimpanzee. Proc Natl Acad Sci USA 1997; 94(16):8738-8743) was generated as described previously for the genotype 1b (Con1) replicon luciferase cell line. The replicon construct was modified by introducing mutations were introduced into the genes encoding the NS3 helicase domain (proline replaced by leucine at position 1496) and NS5A (serine to isoleucine at position 2204) to improve replication in cell culture.
(§2) HCV replicon luciferase assays were developed to monitor the inhibitory effects of compounds described in the disclosure on HCV genotypes 1a and 1b viral replication. HUH-7 cells, constitutively expressing the HCV replicon, were grown in Dulbecco's Modified Eagle Media (DMEM) (Gibco-BRL) containing 10% Fetal calf serum (FCS) (Sigma) and 1 mg/mL G418 (Gibco-BRL). Compounds were serially diluted 3 folds in DMSO for a twenty-point titration and subsequently transferred to sterile 384-well tissue-culture treated plates (Corning cat #3571). The plates were then seeded with 50 μL of cells at a density of 3.0×10^3 cells/well in DMEM containing 4% FCS (final DMSO concentration at 0.5%). After 3 days incubation at 37° C., cells were analyzed for Renilla Luciferase activity using the EnduRen as substrate (Promega cat #E6485). The EnduRen substrate was diluted in DMEM and then added to the plates to a final concentration of 7.5 μM. The plates were incubated for 2 hrs at 37° C. and then read immediately for 30 seconds with Viewlux Imager (PerkinElmer) using a luminescence program. To assess cytotoxicity of compounds, CC50 values were generated by multiplexing the EnduRen-containing plates with Cell Titer-Blue (Promega, cat #G8082). Cell-Titer Blue (3 μL) was added to each well and incubated for 8 hrs at 37° C. The fluorescence signal from each well was read, with an excitation wavelength at 525/10 nm and an emission wavelength of 598/10 nm, using the Viewlux Imager.
(§3) The EC50 values for compounds were calculated by using a four-parameter logistic equation: y=A+((B−A)/(1+((C/x)^D))), where A and B denotes minimal and maximal % inhibition, respectively, C is the EC50, D is the hill slope and x represents compound concentration.

Experiment [2] relates to HCV genotype 1b (Con1) replicon in HUH-7 cells. The experiment in a line: HCV replicon luciferase reporter assay, genotype 1b. In kind it is cell-based. To be noted: Hepatitis C virus, 72 h, HCV genotype 1b replicon, 3 days incubation, Renilla luciferase.
Text: as §1, with “time. […]” for “time.”
as §2, §3

As for `COc1cnc(O[C@@H]2C[C@H]3C(=O)N[C@]4(C(=O)NS(=O)(=O)C5CC5)C[C@H]4/C=C\[C@@H](C)CCC[C@@H](C)[C@H](NC(=O)OC(C)(C)C(F)(F)F)C(=O)N3C2)c2ccccc12` [Compound 4, 1,1,1-trifluoro-2-methylpropan-2-yl (2R,6S,7R,11S,13aS,14aR,16aS,Z)-14a-(cyclopropylsulfonylcarbamoyl)-2-(4-methoxyisoquinolin-1-yloxy)-7,11-dimethyl-5,16-dioxo-1,2,3,5,6,7,8,9,10,11,13a,14,14a,15,16,16a-hexadecahydrocyclopropa[e]pyrrolo[1,2-a][1,4]diazacyclopentadecin-6-ylcarbamate], the EC50 was 4.9 nM in experiment [1] (numeric values) and 2.8 nM in experiment [2] (numeric values).

With `COc1cnc(O[C@@H]2C[C@H]3C(=O)N[C@]4(C(=O)NS(=O)(=O)C5CC5)C[C@H]4/C=C\[C@@H](C)CCC[C@@H](C)[C@H](NC(=O)OC(C)(C)C(F)(F)F)C(=O)N3C2)c2cccc(Cl)c12` [Compound 8, 1,1,1-trifluoro-2-methylpropan-2-yl (2R,6S,7R,11S,13aS,14aR,16aS,Z)-2-(5-chloro-4-methoxyisoquinolin-1-yloxy)-14a-(cyclopropylsulfonylcarbamoyl)-7,11-dimethyl-5,16-dioxo-1,2,3,5,6,7,8,9,10,11,13a,14,14a,15,16,16a-hexadecahydrocyclopropa[e]pyrrolo[1,2-a][1,4]diazacyclopentadecin-6-ylcarbamate], the results for the EC50 in experiment [1] (range classes) and in experiment [2] (range classes) were 2.01 to 5 nM and 1.01 to 2 nM, respectively.

As for `COc1ccc2ncc(O[C@@H]3C[C@H]4C(=O)N[C@]5(C(=O)NS(=O)(=O)C6CC6)C[C@H]5/C=C\[C@H](C)CCC[C@@H](C)[C@H](NC(=O)OC(C)(C)C(F)(F)F)C(=O)N4C3)nc2c1` [Compound 30, 1,1,1-trifluoro-2-methylpropan-2-yl (2R,6S,7R,11R,13aS,14aR,16aS,Z)-14a-(cyclopropylsulfonylcarbamoyl)-2-(7-methoxyquinoxalin-2-yloxy)-7,11-dimethyl-5,16-dioxo-1,2,3,5,6,7,8,9,10,11,13a,14,14a,15,16,16a-hexadecahydrocyclopropa[e]pyrrolo[1,2-a][1,4]diazacyclopentadecin-6-ylcarbamate], the EC50 in experiment [1] (range classes) was 2.01 to 5 nM; in experiment [2] (range classes), 0.2 to 1 nM.

For `COc1ccc2c(O[C@@H]3C[C@H]4C(=O)N[C@]5(C(=O)NS(=O)(=O)C6CC6)C[C@H]5/C=C\[C@H](C)CCC[C@@H](C)[C@H](NC(=O)OC(C)(C)C(F)(F)F)C(=O)N4C3)nccc2c1` [Compound 9, 1,1,1-trifluoro-2-methylpropan-2-yl (2R,6S,7R,11R,13aS,14aR,16aS,Z)-14a-(cyclopropylsulfonylcarbamoyl)-2-(6-methoxyisoquinolin-1-yloxy)-7,11-dimethyl-5,16-dioxo-1,2,3,5,6,7,8,9,10,11,13a,14,14a,15,16,16a-hexadecahydrocyclopropa[e]pyrrolo[1,2-a][1,4]diazacyclopentadecin-6-ylcarbamate], the figures for the EC50 in experiment [1] (numeric values) and in experiment [2] (numeric values) were 1 nM and 0.36 nM, respectively.

Regarding `COc1ccc2c(O[C@@H]3C[C@H]4C(=O)N[C@]5(C(=O)NS(=O)(=O)C6(C)CC6)C[C@H]5/C=C\[C@H](C)CCC[C@@H](C)[C@H](NC(=O)OC(C)(C)C(F)(F)F)C(=O)N4C3)ncc(OC)c2c1` [Compound 14, 1,1,1-trifluoro-2-methylpropan-2-yl (2R,6S,7R,11R,13aS,14aR,16aS,Z)-2-(4,6-dimethoxyisoquinolin-1-yloxy)-7,11-dimethyl-14a-(1-methylcyclopropylsulfonylcarbamoyl)-5,16-dioxo-1,2,3,5,6,7,8,9,10,11,13a,14,14a,15,16,16a-hexadecahydrocyclopropa[e]pyrrolo[1,2-a][1,4]diazacyclopentadecin-6-ylcarbamate], the EC50 lay in the range of 2.01 to 5 nM in experiment [1] (range classes) and 1.01 to 2 nM in experiment [2] (range classes).

For `COc1ccc2ncc(O[C@@H]3C[C@H]4C(=O)N[C@]5(C(=O)NS(=O)(=O)C6(C)CC6)C[C@H]5/C=C\[C@@H](C)CCC[C@@H](C)[C@H](NC(=O)OC(C)(C)C(F)(F)F)C(=O)N4C3)nc2c1` [Compound 18], the EC50 in experiment [1] (range classes) and in experiment [2] (range classes) was 5.01 to 68 nM throughout.

Regarding `COc1ccc2c(O[C@@H]3C[C@H]4C(=O)N[C@]5(C(=O)NS(=O)(=O)C6(CF)CC6)C[C@H]5/C=C\[C@H](C)CCC[C@@H](C)[C@H](NC(=O)OC(C)(C)C(F)(F)F)C(=O)N4C3)ncc(OC)c2c1` [Compound 12], the EC50 lay within 2.01 to 5 nM in experiment [1] (range classes) and 1.01 to 2 nM in experiment [2] (range classes).

For `COc1ccc2c(O[C@@H]3C[C@H]4C(=O)N[C@]5(C(=O)NS(=O)(=O)C6CC6)C[C@H]5/C=C\[C@H](C)CCC[C@@H](C)[C@H](NC(=O)OC(C)(C)C(F)(F)F)C(=O)N4C3)ncc(OC)c2c1` [Compound 22, 1,1,1-trifluoro-2-methylpropan-2-yl (2R,6S,7R,11R,13aS,14aR,16aS,Z)-14a-(cyclopropylsulfonylcarbamoyl)-2-(4,6-dimethoxyisoquinolin-1-yloxy)-7,11-dimethyl-5,16-dioxo-1,2,3,5,6,7,8,9,10,11,13a,14,14a,15,16,16a-hexadecahydrocyclopropa[e]pyrrolo[1,2-a][1,4]diazacyclopentadecin-6-ylcarbamate], the EC50 is 1.01 to 2 nM in experiment [1] (range classes) and 0.2 to 1 nM in experiment [2] (range classes).

As to `COc1ccc2c(O[C@@H]3C[C@H]4C(=O)N[C@]5(C(=O)NS(=O)(=O)C6(CF)CC6)C[C@H]5/C=C\[C@@H](C)CCC[C@@H](C)[C@H](NC(=O)OC(C)(C)C(F)(F)F)C(=O)N4C3)ncc(OC)c2c1` [Compound 13], the figures for the EC50 in experiment [1] (range classes) and in experiment [2] (range classes) were 5.01 to 68 nM and 2.01 to 5 nM, respectively.

For the molecule `COc1cnc(O[C@@H]2C[C@H]3C(=O)N[C@]4(C(=O)NS(=O)(=O)C5CC5)C[C@H]4/C=C\[C@@H](C)CCC[C@@H](C)[C@H](NC(=O)OC(C)(C)C)C(=O)N3C2)c2cccc(Cl)c12` [Compound 6, tert-butyl (2R,6S,7R,11S,13aS,14aR,16aS,Z)-2-(5-chloro-4-methoxyisoquinolin-1-yloxy)-14a-(cyclopropylsulfonylcarbamoyl)-7,11-dimethyl-5,16-dioxo-1,2,3,5,6,7,8,9,10,11,13a,14,14a,15,16,16a-hexadecahydrocyclopropa[e]pyrrolo[1,2-a][1,4]diazacyclopentadecin-6-ylcarbamate], the EC50 lay in the range of 1.01 to 2 nM in experiment [1] (range classes) and 2.01 to 5 nM in experiment [2] (range classes).
